Data reported in publication PMC1716192, “A Plant-Derived Morphinan as a Novel Lead Compound Active against Malaria Liver Stages” (PLoS Medicine, 2006).
Where two headings read alike, the source gives them in different places.

Assays:
Type in all cases: cell-based
[1] = system: P. yoelii (265 BY strain) hepatic stages; test: In vitro assay for P. yoelii liver stage inhibition in primary mouse hepatocytes
Experimental: (§1) P. yoelii (265 BY strain) and P. falciparum (NF 54 strain) sporozoites were obtained by dissection of infected Anopheles stephensi salivary glands. Primary mouse hepatocytes were isolated as previously described and seeded in eight-well Lab-Tek plastic chamber slides (VWR, Fontenay-sous-Bois, France) previously coated with rat-tail collagen I (BD Biosciences, Le Pont de Claix, France) at a density of 10^5 cells per well. Mouse hepatocytes were cultured at 37 °C in 5% CO2 in William's E medium supplemented with 10% fetal calf serum, 1% L-glutamine, 1% sodium pyruvate, 1% insulin-transferrin-selenium, 1% nonessential amino acids, and 1% penicillin-streptomycin (all from Invitrogen, Cergy-Pontoise, France), for 24 h before inoculation of P. yoelii sporozoites (10^5 per well). Human liver fragments were collected following informed consent provided from patients undergoing a partial hepatectomy. The collection and use of these tissues were undertaken in accordance with French Government ethical regulations. Primary human hepatocytes were isolated from the healthy parts of these liver biopsies as previously described. Human hepatocytes were seeded in LabTek plastic chamber slides coated with collagen, at a density of 1.8 × 10^5 cells per well and cultured at 37 °C in 5% CO2 in the same medium as above, supplemented with 10^−7 M dexamethasone (Sigma) and 2% DMSO after complete cell adherence (12–24 h), for at least 48 h before inoculation of P. falciparum sporozoites (10^5 per well). For a standard assay, the plant extract, the purified compound, or primaquine was solubilized in DMSO, further diluted in culture medium (equal DMSO concentrations of <0.3% per well), and then added to hepatocyte cultures at the time of sporozoite inoculation. Three hours later, after sporozoite penetration into hepatocytes, cultures were washed and further incubated in the presence of the drug. Culture medium containing the appropriate drug concentration was changed daily until 48 h for P. yoelii, or until 5 d for P. falciparum. Parasites were quantified on the last day of incubation. For the in vitro timing experiments, tazopsine treatment of P. yoelii and P. falciparum cultures was undertaken for different periods during the cultivation: 0 h to 3 h, 3 h to 24 h, or 24 h to 48 h after P. yoelii sporozoite inoculation (quantification at 48 h), or 0 h to 2 d, or 3 d to 5 d after P. falciparum sporozoite inoculation (quantification at 5 d). […] Cells were stained with Evans Blue (0.4%), and parasites and cells nuclei were stained with 1 μg/ml of diamidino-phenylindole (DAPI; Sigma). Parasite numbers were counted under a fluorescence microscope with a 25× light microscope objective.
(§2) IC50 and TC50 were calculated by nonlinear regression using four-parameter logistic curves on the SigmaPlot 10.0 software (http://www.systat.com). Each IC50 or TC50 is expressed as a mean between two independent experiments, followed by the standard error of the mean.

[2] = system: P. falciparum (NF 54 strain) hepatic stages; test: In vitro assay for P. falciparum liver stage inhibition in primary human hepatocytes; settings: P. falciparum hepatic stages in primary human hepatocytes; for IC50: quantified at 5 d, read-out: IC50
Experimental: as §1, with “objective. IC50 values, the drug concentration at which a 50% reduction in the number of parasites was observed, as compared to the number in the DMSO control cultures, were derived from two independent experiments in which each concentration was tested in triplicate wells.” for “objective.”
as §2

[3] = system: primary mouse hepatocytes; test: In vitro assay for cell viability (neutral red), mouse hepatocytes; settings: 48 h drug exposure
Experimental: (§3) Primary hepatocytes of mice or humans were prepared as above and seeded in 96-well plates coated with collagen, at a density of 5 × 10^4 and 7 × 10^4 cells per well, respectively. Drugs were added to the culture medium, which was changed daily after 24 h or 48 h of incubation for mouse and human hepatocytes, respectively. After 48 h of drug exposure (mouse hepatocytes) or 5 d (human hepatocytes), 50 μl of neutral red (Sigma) at 0.02% in phosphate-buffered saline (PBS) were added per well and incubated for 24 additional hours. Cultures were then washed with PBS and the neutral red extracted with 1% SDS from viable cells and quantified by measuring the OD540 on a microplate autoreader photometer (BioTek Instruments, Winooski, Vermont, United States).
as §2

[4] = system: primary human hepatocytes; test: In vitro assay for cell viability (neutral red), human hepatocytes; settings: 5 d drug exposure
Experimental: as §3, §2

[5] = Plasmodium yoelii, Hepatocyte, 48 h

COc1cc(NC(C)CCCN)c2ncccc2c1 (stereo not shown) [Primaquine, reference compound]
IC50 ([1]; P. yoelii hepatic stages in primary mouse hepatocytes, quantified at 48 h, read-out: IC50): 640 ± 100 nM
IC50 ([1]; Plasmodium yoelii, Hepatocyte, 48 h, P. yoelii hepatic stages in primary mouse hepatocytes, quantified at 48 h, read-out: IC50): ~1000 nM
IC90 ([1]; Plasmodium yoelii, Hepatocyte, P. yoelii hepatic stages in primary mouse hepatocytes, 48 h, read-out: IC90): > 30000 nM
IC50 [2]: 800 ± 900 nM
IC50 ([2]; Plasmodium falciparum, Hepatocyte, 120 h): ~1000 nM
IC90 ([2]; Plasmodium falciparum, Hepatocyte, 120 h, 5 d, read-out: IC90): 4100 ± 500 nM
TC50 [3]: 70500 ± 4300 nM
TC50 [4]: 65200 ± 11900 nM

COc1ccc2c3c1O[C@H]1[C@@H](O)C=C[C@H]4[C@@H](C2)N(C)CC[C@@]341 [codeine, reference compound]
IC50 [1, 5]: > 100000 nM

COC1=CC=C2[C@H]3Cc4ccc(OC)c5c4[C@@]2(CCN3C)[C@H]1O5 [thebaine, reference compound]
IC50 [1, 5]: > 100000 nM
